One compound from patent US20160367537A1, “COMPOSITIONS AND METHODS FOR THE TREATMENT AND MANAGEMENT OF STEATOSIS IN HUMAN LIVER” (WAKE FOREST UNIVERSITY HEALTH SCIENCES, priority 2013, published 2016) can be followed below.

Series [1] has as its system lysosomal acid lipase deficient (LAL−/−) mice. Briefly: Mouse model of lysosomal acid lipase deficiency, PRD125 as diet admixture. The class given is in vivo. As for the experimental part:
In the present example, hepatic lipid concentrations and content in a lysosomal acid lipase deficient (LAL^−/−) mouse model were determined in the presence and absence of selective SOAT2 inhibitors. The data are for male lysosomal acid lipase deficient mice on a FVB background. The mice were fed a chow diet for 21 days. During the subsequent 52 or 53 days, 5 mice were fed the chow diet without drug and 3 of 5 to be studied were fed a chow diet supplemented with PRD125 at a dose of 10 mg/kg/day. Animals were ex-sanguinated at 52 days and the blood plasma was collected in EDTA and frozen in liquid nitrogen. The livers, small intestine, and spleen were flushed with saline and rinsed, then also snap frozen in liquid nitrogen. All organs were weighed, and after freezing, approximately 25 mg of tissue was extracted in chloroform methanol, 2:1, for subsequent lipid determinations. Free and total cholesterol was measured enzymatically and esterified cholesterol was determined by difference. Aliquots of the terminal plasma were used for measurement of tissue enzymes.
Mice were studied starting at 21 days of age and studied for 52 to 53 days. Treatment with PRD125 was at 10 mg/kg/day and the compound was given as a diet admixture.

For the next series, the target named is T1, SOAT2 (Homo sapiens, UniProt O75908).
T1 sequence (O75908 1-522): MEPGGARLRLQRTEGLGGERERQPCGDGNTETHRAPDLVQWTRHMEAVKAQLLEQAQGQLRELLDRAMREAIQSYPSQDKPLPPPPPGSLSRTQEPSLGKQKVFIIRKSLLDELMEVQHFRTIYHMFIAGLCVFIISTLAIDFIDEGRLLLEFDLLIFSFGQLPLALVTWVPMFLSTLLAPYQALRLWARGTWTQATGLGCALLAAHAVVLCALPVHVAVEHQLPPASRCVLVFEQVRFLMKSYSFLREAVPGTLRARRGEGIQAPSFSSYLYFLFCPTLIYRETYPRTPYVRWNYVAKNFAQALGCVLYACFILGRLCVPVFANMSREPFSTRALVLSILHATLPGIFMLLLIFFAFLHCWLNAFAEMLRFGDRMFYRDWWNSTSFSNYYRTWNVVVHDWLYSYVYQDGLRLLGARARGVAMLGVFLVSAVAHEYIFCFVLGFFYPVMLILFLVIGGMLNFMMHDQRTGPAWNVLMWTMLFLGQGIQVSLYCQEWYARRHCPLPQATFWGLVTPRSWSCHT
Briefly: Specificity for SOAT2 compared to SOAT1.

A short description of another series: Stability in the diet. It counts as physicochemical. The following applies: diet admixture.
The nature of series [2]: Absorption after oral intake. Conditions: given in the diet.

In the case of `Cc1ccccc1[C@@H]1OCC2(C)C3C[C@H](OC(=O)c4ccc(C#N)cc4)[C@@]4(C)Oc5cc(-c6cccnc6)oc(=O)c5[C@H](O)C4[C@@]3(C)CC[C@@H]2O1` (some centres unmarked) [PRD125], the “decrease of liver cholesterol content versus untreated mice” value in series [1] (LAL−/− mice, 10 mg/kg/day as diet admixture) stood at 65%. The serum enzyme levels entry in series [1] (male LAL−/− mice, 10 mg/kg/day as diet admixture, terminal plasma) was “reduced”. In addition, the liver cholesterol esters entry in series [1] (male LAL−/− mice, FVB background, 10 mg/kg/day as diet admixture, from 21 to 52 or 53 days of age) was “significantly reduced”. Moreover, the oral effectiveness result in series [1] (oral, does not need booster injections) was “effective orally”. Further, the “cholesterol content of liver” value in series [1] (treated LAL−/− mice, 10 mg/kg/day as diet admixture (untreated approximately 146 mg/liver)) was around 39 mg/liver. For the same compound, at SOAT2, the “specificity to SOAT2 compared to SOAT1” value was “over 5000 fold”. Further, in “Stability in the diet”, the “stability in the diet” value was “stable”. Also, the absorption entry in series [2] is listed as “easily absorbed”.
